Assay results taken from patent US9642921B2, “Cancer combination therapy and recombinant vectors” (Tocagen Inc., priority 2012, dated 2017).

How the values were obtained:
[1] = tested on: Tu-2449 cells (naive and Toca 511-transduced); assay: In vitro 5-FC sensitivity assay (XTT viability); type: cell-based, mouse; details: day 6
Protocol: (§1) Tu-2449 and U-87MG cells were infected with ˜1×10^4 transducing units (TU) ml^−1 of Toca 511 in the presence of polybrene (8 mgml^−1). Cells were passaged 2-3 times a week for 17 days. […] Cells were seeded on day 0 at a concentration of 1×10^3 cells per well of a 96-well plate in […] of culture medium (Dulbecco's modified Eagle's mediump10% fetal calf serum+gentamicin (17 mg per 100 ml)). On day 1, […] of culture medium containing 5-FC (range 0-1000 mgml^−1), TMZ (range 0-100 mgml^−1) or both drugs (5-FC (range 0-1.6 mgml^−1) and TMZ (2 mgml^−1)) was added to the cells. Viability was measured on day 6 using Cell Proliferation Kit II (XTT) (Roche, Indianapolis, Ind., USA) as recommended by the manufacturer.
(§2) Two glioma lines U-87MG (TMZ-sensitive) and Tu-2449 (TMZ-resistant) were chosen to examine the compatibility of TMZ and Toca 511p5-FC treatment in previously infected cells. These two cell lines were cultured as either non-transduced control or 100% Toca 511-transduced cells. Sensitivity to 5-FC was examined by measuring cell viability after culture in increasing amounts of 5-FC. […] In addition, cell viability was examined in the nontransduced and transduced cell lines treated with increasing amounts of TMZ.

[2] = tested on: U-87MG cells (naive and Toca 511-transduced); assay: In vitro 5-FC sensitivity assay (XTT viability); type: cell-based, human; details: day 6
Protocol: as §1, §2

[3] = pharmacokinetic studies; cited from earlier work
[4] = Dose finding study 5-FC and TMZ, hematological examination, healthy B6C3/F1 mice; type: in vivo, mouse
Protocol: A dose finding study was conducted in healthy B6C3/F1 hybrid mice to evaluate the clinical effects and possible hematological changes during concomitant administration of 5-FC and TMZ. Both drugs are known to cause hematological toxicity in some circumstances and therefore it is important to examine any potential drug interaction with respect to this potentially toxic side effect. Three concentrations of TMZ (25, 60 and 125 mgkg^−1) in combination with a fixed dose of 5-FC (500 mgkg^−1 per dose) were administered intraperitoneal SID for 4 consecutive days starting on days 1, 8, 22 and 36. Mice were terminated on day 51 for hematological examination.

[5] = tested on: Tu-2449; assay: In vitro RRV-GFP spread (FACS); type: cell-based, mouse; details: TMZ up to 20 mgml^−1 added 24 h before RRV-GFP, by day 19
Protocol: (§3) Two different TMZ schedules were tested. To test the effect of preincubation with TMZ, cells were seeded at a density of 1×10^5 cells per well on six-well plates. After 24 h, different concentrations of TMZ were added to the cells. The next day, cells were infected with RRV-GFP vector at a multiplicity of infection of 0.1. To test the effect of concomitant TMZ, cells were seeded at a density of 1×10^5 cells per well on six-well plates. After 48 h, cells were infected with RRV-GFP vector at a multiplicity of infection of 0.1 in the presence of different concentrations of TMZ. The following day, cells were transferred to T25 flasks keeping the indicated TMZ concentration. Cells were analyzed three times a week by enhanced green fluorescent protein fluorescence-activated cell sorting analysis for virus spread, maintaining the indicated TMZ concentration during the entire experiment.
(§4) To test any possible effect of TMZ on the spread of Toca 511, the same panel of glioma cells was treated with different concentrations of TMZ depending on the TMZ sensitivity of the cells determined in the clonogenic assay in FIG. 1b. In addition, vector with the same backbone as Toca 511 but encoding a GFP transgene (RRV-GFP) was used to assess vector spread by fluorescence-activated cell sorting analysis. Two TMZ treatment schedules were tested. […]

[6] = Dose finding study 5-FC and TMZ, hematological examination, healthy athymic mice; type: in vivo, mouse
Protocol: To test the effect of the combination therapy of TMZ and Toca 511+5-FC treatment in a TMZ-sensitive cell line in vivo, the U-87MG cell line was used in an orthotopic xenograft glioma model in immunocompromised mice. A similar TMZ dose finding study as for the C3B6F1-immunocompetent mice was conducted in healthy athymic mice to evaluate the clinical effects and possible hematological changes during concomitant administration of 5-FC and TMZ. Two concentrations of TMZ (25 and 60 mgkg^−1) in combination with a fixed dose of 5-FC (500 mgkg^−1 per dose) were administered intraperitoneal SID for 4 consecutive days starting on days 1, 15, 29 and 43. Mice were terminated on day 53 for hematological examination.

[7] = tested on: U-87MG; assay: In vitro RRV-GFP spread (FACS); type: cell-based, human; details: 10 mgml^−1 of TMZ
Protocol: as §3
(§5) To test any possible effect of TMZ on the spread of Toca 511, the same panel of glioma cells was treated with different concentrations of TMZ depending on the TMZ sensitivity of the cells determined in the clonogenic assay in FIG. 1b. In addition, vector with the same backbone as Toca 511 but encoding a GFP transgene (RRV-GFP) was used to assess vector spread by fluorescence-activated cell sorting analysis. Two TMZ treatment schedules were tested. The first schedule tested treatment with varying concentrations of TMZ before and during the time of vector infection, and the second schedule tested treatment with varying concentrations of TMZ at the same time as the addition of vector. In the first schedule, glioma cells were incubated with different concentrations of TMZ 24 h before the addition of RRVGFP at a multiplicity of infection of 0.1. […] There was an initial lag or decrease in GFP positivity at earlier time points (FIG. 2a). […] In the second schedule, when TMZ and RRV-GFP were added to the glioma cells concomitantly, the same trend was observed; after an initial lag, cells reached nearly 100% GFP positivity in the presence of TMZ (FIG. 2b). The observed infectivity lag was likely due to induction of apoptosis in a certain percentage of cells with TMZ treatment. Surviving cells were still susceptible to infection with RRV-GFP and able to produce more RRV-GFP virus for further infection and spread within the culture dish. […] Rather the data is consistent with the conclusion that slowing of tumor cell replication with the anticancer drug TMZ, slows the replication of the RRV because of the inhibition of cancer cell replication and the requirement for cell replication for productive infection with RRV.

[8] = tested on: 8-MG-BA; assay: In vitro RRV-GFP spread (FACS); type: cell-based, human; details: 1 and 2 mgml^−1 TMZ added 24 h before RRV-GFP, by day 16
Protocol: as §3, §5

[9] = tested on: LN-229; assay: In vitro RRV-GFP spread (FACS); type: cell-based, human; details: 1 and 2 mgml^−1 TMZ added 24 h before RRV-GFP, by day 16
Protocol: as §3, §5

[10] = tested on: LN-18; assay: In vitro RRV-GFP spread (FACS); type: cell-based, human; details: TMZ up to 20 mgml^−1 added 24 h before RRV-GFP, by day 19
Protocol: as §3, §5

[11] = tested on: five glioma cell lines (U-87MG, LN-18, LN-229, 8-MG-BA, Tu-2449); type: cell-based, human and mouse
Protocol: as §3, §4

[12] = tested on: human NET cell lines; details: capecitabine and TMZ in human NET cell lines; cited from earlier work
[13] = highest TMZ dose (125 mgm^−2) coadministered with 5-FC

Question: What does the source list for `Nc1nc(=O)[nH]cc1F` [5-FC, 5-fluorocytosine]?
Answer: sensitivity to 5-FC (cell viability) ([1]; Toca 511-transduced Tu-2449): sensitive to 5-FC in a dose-dependent manner; sensitivity to 5-FC (cell viability) ([1]; naive (non-transduced) Tu-2449, up to 100 mgml^−1 5-FC): highly resistant; sensitivity to 5-FC (cell viability) ([2]; Toca 511-transduced U-87MG): sensitive to 5-FC in a dose-dependent manner; sensitivity to 5-FC (cell viability) ([2]; naive (non-transduced) U-87MG, up to 100 mgml^−1 5-FC): highly resistant

Question: Which “blood brain barrier passage” value [3] does the source give for `O=c1[nH]cc(F)c(=O)[nH]1` [5-FU, 5-fluorouracil] here?
Answer: Its value is “crosses the blood brain barrier”.

Question: What does the source list for `Cn1nnc2c(C(N)=O)ncn2c1=O` [TMZ, Temozolomide]?
Answer: hematological changes ([4]; TMZ 25 mgkg^−1 per day (human equivalent of 75 mgm^−2) with 5-FC 500 mgkg^−1 per dose): without significant hematological changes; leukocytes [4, 13]: almost complete loss; platelet counts [4, 13]: significant reduction; GFP positivity [5]: ~100%; hematological changes ([6]; TMZ 60 mgkg^−1 (human equivalent of 200 mgm^−2) in combination with 5-FC): substantially severe hematological changes (leukocytopenia, thrombocytopenia); increase in ALT activity ([6]; TMZ 60 mgkg^−1 in combination with 5-FC): five fold increase; changes in hematological parameters ([6]; lower TMZ dose of 25 mgkg^−1 in combination with 5-FC): mild changes; cells killed [7]: ~90%; GFP positivity [8]: 100%; GFP positivity [9]: 100%; GFP positivity [10]: ~100%; GFP positivity [11]: ~100%

Question: With `CCCCCOC(=O)Nc1nc(=O)n([C@@H]2O[C@H](C)[C@@H](O)[C@H]2O)cc1F` [capecitabine] as the molecule, how does the “induction of apoptosis, combination effect” value [12] read?
Answer: Its value is “synergistic”.
